Source: patent US20240226066A1, “CARDIOPROTECTION BY AUTOPHAGY INDUCTION AND METABOLIC REPROGRAMMING” (UNIVERSITE PARIS-SACLAY, priority 2021, published 2024)
Where two headings read alike, the source gives them in different places.

Columns and labels:
[1] = tested on: H9C2 cells; assay: Exogenous fatty acid oxidation (XF palmitate-BSA FAO substrate with mito stress test); type: cell-based, rat; settings: fatty acids as substrate
Protocol: FIG. 8C: the oxidation of the exogenous fatty acids was measured simultaneously using the XF palmitate-BSA FAO substrate kit with the mito stress test on XF cells. Before starting the test, 30 μL of XF palmitate-BSA CAM or BSA control substrate were added to the appropriate wells.
The XFe96 extracellular flow analyzer (Seahorse Biosciences, North Billerica, MA, USA) was used to measure the bioenergetic function of H9C2 cardiomyocytes. The H9C2 cells were seeded at 20 000 cells per well in XF96 cell culture microplates; all the pretreatments were carried out with serum-free cell culture medium. The Agilent Seahorse XF glycolysis stress test was performed to measure glycolytic function in the H9C2 cells; the extracellular acidification rate (ECAR) was measured sequentially by 3 injections, 10 mM glucose, 2 μM oligomycin and 50 mM 2-deoxy-D-glucose (2-DG). The Agilent Seahorse XF Cell Mito stress test measured key parameters of mitochondrial function by directly measuring the oxygen consumption rate (OCR) of the H9C2 cells. […] The oxidation of the exogenous fatty acids was measured simultaneously using the XF palmitate-BSA FAO substrate kit with the mitochondrial stress test on XF cells. […]
(§1) Next, the energy metabolism was analyzed in real time using the Seahorse technology in H9C2 cells.

[2] = tested on: RNVCs; assay: Mitochondrial ROS production with MitoSOX fluorescent probe; type: cell-based, rat; settings: 1 μM, 6 h
Protocol: FIG. 12: The RNVCs were treated with 0.1% DMSO, 3 μM rapamycin, 1 μM digitoxigenin, 1 μM digoxin, 1 μM minaprin, 1 μM VP331, 1 μM LOPA87, 10 μM SG6163F for 6 h, then the ROS production was stained with the MitoSOX fluorescent probe.
The RNVCs were treated with 0.01% DMSO, 3 μM rapamycin, […], 1 μM digoxin, 1 μM minaprine, 1 μM VP331, 1 μM LOPA87, 10 μM SG6163F in a serum-free cell culture medium for 6 hours. The contents (50 μg) of a MitoSOX™ mitochondrial superoxide indicator vial (ThermoFisher, M36008) were dissolved in 13 μl dimethyl sulfoxide (DMSO) to prepare a 5 mM MitoSOX™ reagent stock solution. Next, the 5 mM MitoSOX™ reagent stock solution in PBS was diluted to prepare a 5 μM working solution of MitoSOX™ reagent. After treatment, the cells were rinsed twice with hot PBS and then incubated with a MitoSOX reagent working solution for 10 minutes at 37° C. The cells were gently rinsed three times with hot PBS. Red fluorescence was detected with a Leica confocal microscope. Nuclear fluorescence was suppressed and mitochondrial fluorescence intensity was measured using ImageJ software.
ROSs are produced or accumulated as a by-product of mitochondrial activity metabolism. Thus, the ROSs may be a consequence of mitochondrial function or may reflect a defect in the mitochondrial antioxidant system.

[3] = tested on: A549 lung cancer cell line; assay: Influence of hits on growth of A549 cancer cells (total LDH after lysis); type: cell-based; settings: 48 h
Protocol: The cells were cultured for 6 h in the presence or absence of the hits, and then for 42 h. Finally, the cells were lysed with lysis buffer and the amount of LDH was measured to evaluate the total cell growth.
A colorimetric assay was used to measure lactate dehydrogenase (LDH), a cytosolic enzyme which is released during permeabilization of the plasma membrane (Promega G1780). The assay was performed using cell culture supernatants obtained from H9C2 or RNVC (rat neonatal ventricular myocyte) cells and lysis buffer (LB) was used as a positive control for total cell lysis. The LDH release was measured by absorbance reading at 490 nm (Infinite spectrofluorimeter, Tecan).
The effect of the compounds was then evaluated on primary rat neonatal ventricular cardiomyocytes (RNVCs) using the LDH test and propidium iodide staining. […] The absence of proliferative effects of the compounds was also evaluated on the A549 lung cancer cell line for 48 h (FIG. 2C).

[4] = tested on: RNVCs; assay: Mitochondrial network and cell volume by confocal microscopy (Mitotracker, calcein-AM, IMARIS); type: cell-based, rat; settings: for effect on the mitochondrial network / number of mitochondria: 1 and 10 μM, 6 h
Protocol: FIG. 6. Effects on mitochondrial dynamics by fluorescence microscopy The RNVCs were treated with 1 μM hits (FIG. 6A) and 10 μM hits (FIG. 6B) for 6 h and the mitochondrial network was stained with 200 nM of Mitotracker. The mitochondrial network and individual mitochondria were then analyzed using a Leica confocal microscope and IMARIS software. Data are presented as mean±SEM with single-factor ANOVA, and multiple Sidak comparisons. *, p<0.05, **, p<0.01, ***, p<0.001 with respect to DMSO.
FIG. 11: following the treatment of the RNVCs with the compounds as indicated, the cell volume was stained with 4 μM of calcein-AM. The cell volume was then analyzed using the IMARIS software.
Confocal microscopy. On day 0, 4×10^5 neonatal cardiomyocytes were plated overnight on laminin-coated 35 mm culture dishes (10 μg/ml). On day 1, the cells were treated with various compounds at 1 or 10 μM for 6 hours. The cells were incubated with Mitotracker Red 580 at 200 nM for 20 minutes at 37° C., then 4 μM of calcein (Calcein AM, Life Technologies, St Aubin, France) for 10 minutes at 37° C. The images were acquired with a Leica confocal microscope (SP5) (Mannheim, Germany). The mitochondrial network and the 3D model of cell volume were reconstructed using the IMARIS software (Bitplane Company, Zurich, Switzerland); therefore the cell volume, mitochondrial number and volume were analyzed.
Due to the importance of mitochondria and reactive oxygen species (ROS) levels in the fate of cardiomyocyte cells, the hypothesis that the compounds could impact the mitochondrial network was explored. Following treatment of the RNVCs with the compounds tested, the mitochondrial network was stained with 200 nM of Mitotracker and the cell volume with 4 μM of calcein-AM. Thus, the mitochondrial network and the individual mitochondria were then analyzed using the IMARIS software.

[5] = biological target: T1, hERG potassium channel (Homo sapiens, UniProt Q12809); assay: hERG channel binding assay ([3H]dofetilide displacement); settings: for inhibition at 10 µM: human, probe [3H]dofetilide
T1 construct: Eurofins
T1 sequence (Q12809 whole entry): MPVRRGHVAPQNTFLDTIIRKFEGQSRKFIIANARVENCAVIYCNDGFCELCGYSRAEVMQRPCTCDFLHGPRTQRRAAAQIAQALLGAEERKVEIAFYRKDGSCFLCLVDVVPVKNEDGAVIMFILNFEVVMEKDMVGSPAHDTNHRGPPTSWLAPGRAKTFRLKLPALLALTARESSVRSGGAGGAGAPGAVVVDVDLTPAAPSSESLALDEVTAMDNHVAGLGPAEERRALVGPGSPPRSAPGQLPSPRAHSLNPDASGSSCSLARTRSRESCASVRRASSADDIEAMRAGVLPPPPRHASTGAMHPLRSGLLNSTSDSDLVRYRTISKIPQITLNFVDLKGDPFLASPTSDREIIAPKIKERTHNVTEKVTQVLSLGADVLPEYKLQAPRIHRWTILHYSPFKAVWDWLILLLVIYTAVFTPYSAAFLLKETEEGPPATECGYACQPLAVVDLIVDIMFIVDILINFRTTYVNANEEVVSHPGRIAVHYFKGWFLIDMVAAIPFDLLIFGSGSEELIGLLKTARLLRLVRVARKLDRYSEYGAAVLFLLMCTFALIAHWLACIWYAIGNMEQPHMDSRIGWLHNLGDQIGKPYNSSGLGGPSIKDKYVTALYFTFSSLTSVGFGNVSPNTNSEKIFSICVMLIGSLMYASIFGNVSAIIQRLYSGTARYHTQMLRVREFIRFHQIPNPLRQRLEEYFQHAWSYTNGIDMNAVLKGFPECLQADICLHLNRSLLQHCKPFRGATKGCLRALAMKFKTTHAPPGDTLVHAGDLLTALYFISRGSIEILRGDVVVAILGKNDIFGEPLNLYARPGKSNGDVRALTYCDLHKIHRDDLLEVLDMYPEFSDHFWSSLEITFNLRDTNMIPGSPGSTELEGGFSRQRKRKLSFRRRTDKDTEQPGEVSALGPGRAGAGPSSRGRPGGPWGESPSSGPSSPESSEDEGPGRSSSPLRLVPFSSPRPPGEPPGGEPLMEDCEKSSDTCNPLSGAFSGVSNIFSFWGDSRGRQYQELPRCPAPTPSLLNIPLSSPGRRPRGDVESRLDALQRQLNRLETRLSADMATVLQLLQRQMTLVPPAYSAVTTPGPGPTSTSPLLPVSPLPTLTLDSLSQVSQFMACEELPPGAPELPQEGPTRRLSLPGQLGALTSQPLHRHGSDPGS
Protocol: The evaluation of the binding of the compounds to the human hERG potassium channel was carried out as described previously (Eurofins).
Since the blocking of the human potassium channel hERG channel may be responsible for cardiac fibrillation leading to cardiac arrest and death of the patient, the binding of the 3 molecules SG6163F, VP331 and LOPA87 to this receptor was evaluated.

[6] = tested on: H9C2 cells; assay: Seahorse XF Cell Mito stress test (OCR); type: cell-based, rat; settings: glucose and pyruvate as substrates, 6 h
Protocol: FIG. 8B: the H9c2 cells were treated with the compounds for 6 h, then a mitochondrial respiration stress test was carried out.
The XFe96 extracellular flow analyzer (Seahorse Biosciences, North Billerica, MA, USA) was used to measure the bioenergetic function of H9C2 cardiomyocytes. The H9C2 cells were seeded at 20 000 cells per well in XF96 cell culture microplates; all the pretreatments were carried out with serum-free cell culture medium. The Agilent Seahorse XF glycolysis stress test was performed to measure glycolytic function in the H9C2 cells; the extracellular acidification rate (ECAR) was measured sequentially by 3 injections, 10 mM glucose, 2 μM oligomycin and 50 mM 2-deoxy-D-glucose (2-DG). The Agilent Seahorse XF Cell Mito stress test measured key parameters of mitochondrial function by directly measuring the oxygen consumption rate (OCR) of the H9C2 cells. The test used the built-in injection ports on XF sensor cartridges to add respiration modulators into the cell well during the test in order to reveal key parameters of mitochondrial function. Oligomycin at 2 μM was injected first after the baseline measurements. Then 1 μM of […] (FCCP) was injected. The third injection corresponds to 0.5 μM of antimycin A, to stop mitochondrial respiration. The oxidation of the exogenous fatty acids was measured simultaneously using the XF palmitate-BSA FAO substrate kit with the mitochondrial stress test on XF cells. The substrate-limited medium is DMEM with 0.5 mM glucose, 1 mM GlutaMAX, 0.5 mM carnitine and 1% fetal calf serum. Carnitine was added freshly on the day of the change of medium. The FAO test medium contains 111 mM NaCl, 4.7 mM KCl, 1.25 mM CaCl2, 2 mM MgSO4, 1.2 mM NaH2PO4, supplemented with 2.5 mM glucose, 0.5 mM carnitine and 5 mM HEPES on the day of the test, adjusted to pH 7.4 at 37° C. The H9C2 cells were seeded at 20 000 cells per well in XF96 cell culture microplates. […]
as §1

[7] = tested on: LC3II; assay: LC3 I/II conversion by western blot in RNVCs; type: cell-based, rat; settings: rapamycin positive control (3 μM)
Protocol: FIG. 4E: LC3-I/II protein levels in the RNVCs. Data are presented as mean±SEM with single-factor ANOVA, and multiple Sidak comparisons. *, p<0.05, **, p<0.01 with respect to DMSO.
The H9C2 cells and RNVCs were detached in LB containing: 50 mM Tris, 150 mM NaCl, 1 mM EDTA, 0.5% deoxycholate, 1% Triton X 100, 0.1% SDS (pH 8.0). The cells were collected and placed on ice for 30 minutes. The cells were then centrifuged at 2000 g for 20 minutes at for 4° C. The supernatant was transferred to a new tube and stored on ice. The protein concentration was determined by BCA assay. The protein samples were diluted with sample buffer (2× Laemmli, Sigma), mixed, and heated for 5 minutes at 95° C. […] The images were recorded with a gel imaging system (Bio Rad). […]
Next, the hypothesis that the compounds could protect cardiac cells by activating autophagy, a catabolic process conserved in evolution that involves the degradation of damaged cytoplasmic components, was formulated. […] Then, the cells were treated with the hits and with H2O2 for 2 hours and their survival was analyzed 4 hours later by measuring LDH release (FIGS. 4B, 4C). […] In order to confirm the induction of autophagy by another approach, the RNVCs were transfected with a GFP-LC3 plasmid and the formation of the autophagosome was monitored 24 hours later. […]

SMILES	oxidative phosphorylation [1]	local level of mitochondrial superoxide anion [2]	effect on A549 cell growth [3]	effect on the mitochondrial network [4]	number of mitochondria [4]	inhibition at 10 µM ([5]; inhibition of tritiated dofetilide binding, only values >50% considered effective, read-out: % inhibit 1st assay) [%]	inhibition at 10 µM ([5]; inhibition of tritiated dofetilide binding, only values >50% considered effective, read-out: % inhibit 2nd assay) [%]	inhibition at 10 µM ([5]; mean of two independent measurements, read-out: % inhibit Mean) [%]	binding to the hERG channel ([5]; inhibition of specific binding of [3H]dofetilide in vitro)	ATP production by oxidative phosphorylation (OXPHOS) [6]	mitochondrial mass ([4]; 10 μM)	increase in level of expression of LC3II [7] [fold]
COc1ccc(C)cc1/C=N/[C@@H]1C[C@@H]2C[C@H]([C@H]1C)C2(C)C [VP331]	improved oxidative phosphorylation	induced an elevation	no proliferative effect	no effect	no effect	-4	5.4	0.7	negligible	–	–	–
Cc1cc(-c2ccccc2)nnc1NCCN1CCOCC1 [minaprine]	–	induced an elevation	significantly reduced cell growth and induced cell death	no effect	no effect	–	–	–	–	improved ATP production by oxidative phosphorylation	decreased the mitochondrial mass	–
CO[C@H]1C[C@@H]2CC[C@@H](C)[C@@](O)(O2)C(=O)C(=O)N2CCCC[C@H]2C(=O)O[C@H]([C@H](C)C[C@@H]2CC[C@@H](O)[C@H](OC)C2)CC(=O)[C@H](C)/C=C(\C)[C@@H](O)[C@@H](OC)C(=O)[C@H](C)C[C@H](C)/C=C/C=C/C=C/1C [rapamycin, reference compound]	–	–	–	–	–	–	–	–	–	–	–	> 1.4
